The source of these data is PMC9027910, “Synthesis and Antimycobacterial Evaluation of N-(4-(Benzyloxy)benzyl)-4-aminoquinolines” (Molecules, 2022).

One may read the MIC as the smallest concentration in the dilution series that meets the test's criterion for growth inhibition. Broadly, the melting point is the temperature, or range, at which the solid turns liquid.

Each structure is given as a SMILES string.

One data set relates to M. tuberculosis H37Rv. The experiment in a line: Minimum inhibitory concentration (resazurin microplate). It is filed as cell-based, Mycobacterium tuberculosis. As to conditions: for MIC: Mycobacterium tuberculosis, M. tuberculosis H37Rv, 7 days + 48 h resazurin, highest value of three assays; for Activity against M. tuberculosis H37Rv in words: at the highest concentrations evaluated. (In general: Alamar Blue is a resazurin reagent that responds to reducing activity.)

Take `Cc1cc(NCc2ccc(OCc3ccc(F)c(F)c3)cc2)c2cc(Cl)ccc2n1` [Compound 9j, N-(4-((3,4-difluorobenzyl)oxy)benzyl)-6-chloro-2-methylquinolin-4-amine]: the melting point was in the range of 137 to 139 °C. In addition, the minimal inhibitory concentration (MIC) with M. tuberculosis H37Rv came to 5.9 µM.
On the same counts, the results for `CCc1cc(NCc2ccc(OCc3ccccc3)cc2)c2cc(Br)ccc2n1` [Compound 9s, N-(4-(benzyloxy)benzyl)-6-bromo-2-ethylquinolin-4-amine] are 136 to 138 °C and 5.6 µM.
In the same order, the values of `COc1cc(COc2ccc(CNc3cc(C)nc4ccccc34)cc2)cc(OC)c1` [Compound 9f, N-(4-((3,5-dimethoxybenzyl)oxy)benzyl)-2-methylquinolin-4-amine] are 134 to 136 °C and 12.1 µM.
With `Cc1cc(NCc2ccc(OCc3ccccc3)cc2)c2cc(Cl)ccc2n1` [Compound 9g, N-(4-(benzyloxy)benzyl)-6-chloro-2-methylquinolin-4-amine], the melting point was 165 to 167 °C. Also, in the data set with M. tuberculosis H37Rv, the MIC turned out to be 6.4 µM.
On the same counts, the results for `COc1ccc2nc(C)cc(NCc3ccc(OCc4ccc(F)c(F)c4)cc3)c2c1` [Compound 9y, N-(4-((3,4-difluorobenzyl)oxy)benzyl)-6-methoxy-2-methylquinolin-4-amine] are 104 to 106 °C and 5.9 µM.
In the same order, the values of `CCc1cc(NCc2ccc(OCc3ccccc3)cc2)c2cc(OC)ccc2n1` [Compound 9aa, N-(4-(benzyloxy)benzyl)-2-ethyl-6-methoxyquinolin-4-amine] are 118 to 120 °C and 12.5 µM.
On the same counts, the results for `Cc1cc(NCc2ccc(OCc3ccc(C(C)C)cc3)cc2)c2cc(Br)ccc2n1` [Compound 9q, N-(4-((4-isopropylbenzyl)oxy)benzyl) 6-bromo-2-methylquinolin-4-amine] are 135 to 137 °C and 5.3 µM.
Turning to `COc1ccc2nc(C)cc(NCc3ccc(OCc4ccc(C(C)C)cc4)cc3)c2c1` [Compound 9w, N-(4-((4-isopropylbenzyl)oxy)benzyl)-6-methoxy-2-methylquinolin-4-amine], the melting point was 133 to 135 °C. The MIC with M. tuberculosis H37Rv amounted to 23.4 µM.
On the same counts, the results for `Cc1cc(NCc2ccc(OCc3ccc(F)c(F)c3)cc2)c2cc(Br)ccc2n1` [Compound 9p, N-(4-((3,4-difluorobenzyl)oxy)benzyl) 6-bromo-2-methylquinolin-4-amine] are 142 to 144 °C and 5.3 µM.
In turn, `COc1cc(COc2ccc(CNc3cc(C)nc4ccc(Cl)cc34)cc2)cc(OC)c1` [Compound 9l, N-(4-((3,5-dimethoxybenzyl)oxy)benzyl)-6-chloro-2-methylquinolin-4-amine] gave a melting point of 147 to 149 °C. Besides, the minimum inhibitory concentration (MIC) with M. tuberculosis H37Rv turned out to be 5.7 µM.
In the same order, the values of `Cc1cc(NCc2ccc(OCc3ccc(F)cc3)cc2)c2ccccc2n1` [Compound 9c, N-(4-((4-fluorobenzyl)oxy)benzyl)-2-methylquinolin-4-amine] are 134 to 136 °C and 26.8 µM.
For the compound `COc1ccc2nc(C)cc(NCc3ccc(OCc4ccc(F)cc4)cc3)c2c1` [Compound 9x, N-(4-((4-fluorobenzyl)oxy)benzyl)-6-methoxy-2-methylquinolin-4-amine], the melting point lay within 141 to 143 °C. In the data set with M. tuberculosis H37Rv, the MIC worked out at 12.4 µM.
`Cc1cc(NCc2ccc(OCc3ccc(F)c(F)c3)cc2)c2ccccc2n1` [Compound 9d, N-(4-((3,4-difluorobenzyl)oxy)benzyl)-2-methylquinolin-4-amine] gave a melting point of 199 to 201 °C. In addition, the MIC with M. tuberculosis H37Rv is 25.6 µM.
The compound `Cc1cc(NCc2ccc(OCc3ccc(Cl)cc3)cc2)c2ccccc2n1` [Compound 9b, N-(4-((4-chlorobenzyl)oxy)benzyl)-2-methylquinolin-4-amine] showed a melting point of 111 to 113 °C. For the same compound, in the data set with M. tuberculosis H37Rv, the MIC is > 12.9 µM and the “Activity against M. tuberculosis H37Rv in words” value is “inactive”.
`Cc1cc(NCc2ccc(OCc3ccc(C(C)C)cc3)cc2)c2cc(Cl)ccc2n1` [Compound 9k, N-(4-((4-isopropylbenzyl)oxy)benzyl)-6-chloro-2-methylquinolin-4-amine]: the melting point was in the range of 126 to 128 °C. Further, in the data set on M. tuberculosis H37Rv, the MIC amounted to 5.8 µM.
In the same order, the values of `Cc1cc(NCc2ccc(OCc3ccc(F)cc3)cc2)c2cc(Cl)ccc2n1` [Compound 9i, N-(4-((4-fluorobenzyl)oxy)benzyl) 6-chloro-2-methylquinolin-4-amine] are 170 to 172 °C and 6.1 µM.
Regarding `CCc1cc(NCc2ccc(OCc3ccc(Cl)cc3)cc2)c2cc(Br)ccc2n1` [Compound 9t, N-(4-((4-chlorobenzyl)oxy)benzyl)-6-bromo-2-ethylquinolin-4-amine], the melting point was 122 to 124 °C. Also, in the data set with M. tuberculosis H37Rv (MIC ratio versus methylated analogue 9n), the “Fold higher MIC than 9n” value is on record as 1.9 fold. In addition, the MIC in the data set with M. tuberculosis H37Rv was determined as 5.2 µM.
With `Cc1cc(NCc2ccc(OCc3ccccc3)cc2)c2ccccc2n1` [Compound 9a, N-(4-(benzyloxy)benzyl)-2-methylquinolin-4-amine], the melting point was 134 to 136 °C. Also, in the data set with M. tuberculosis H37Rv, the MIC is > 7 µM and the “Activity against M. tuberculosis H37Rv in words” value was “inactive”.
`COc1ccc2nc(C)cc(NCc3ccc(OCc4ccc(Cl)cc4)cc3)c2c1` [Compound 9v, N-(4-((4-chlorobenzyl)oxy)benzyl)-6-methoxy-2-methylquinolin-4-amine] showed a melting point of 259 to 261 °C. Further, the MIC in the data set on M. tuberculosis H37Rv was found to be 11.9 µM.
`COc1cc(COc2ccc(CNc3cc(C)nc4ccc(Br)cc34)cc2)cc(OC)c1` [Compound 9r, N-(4-((3,5-dimethoxybenzyl)oxy)benzyl)-6-bromo-2-methylquinolin-4-amine] displayed a melting point of 151 to 153 °C. Moreover, in the data set on M. tuberculosis H37Rv, the MIC is 5.1 µM.
As for `Cc1cc(NCc2ccc(OCc3ccccc3)cc2)c2cc(Br)ccc2n1` [Compound 9m, N-(4-(benzyloxy)benzyl)-6-bromo-2-methylquinolin-4-amine], the melting point was in the range of 164 to 166 °C. Besides, the “Fold reduction of activity versus 9n and 9o” value with M. tuberculosis H37Rv (MIC of unsubstituted benzyloxy compound versus 4-halogenated 9n, 9o) is on record as “more than 2 fold”. Also, the MIC in the data set with M. tuberculosis H37Rv worked out at 5.8 µM.
As for `NNC(=O)c1ccncc1` [INH, isoniazid, reference compound], the MIC in the data set with M. tuberculosis H37Rv was 2.3 µM.
Turning to `COc1ccc2nc(C)cc(NCc3ccc(OCc4ccccc4)cc3)c2c1` [Compound 9u, N-(4-(benzyloxy)benzyl)-6-methoxy-2-methylquinolin-4-amine], the melting point is 96 to 98 °C. In addition, in the data set with M. tuberculosis H37Rv, the MIC turned out to be 13 µM.
In the same order, the values of `Cc1cc(NCc2ccc(OCc3ccc(C(C)C)cc3)cc2)c2ccccc2n1` [Compound 9e, N-(4-((4-isopropylbenzyl)oxy)benzyl)-2-methylquinolin-4-amine] are 95 to 97 °C and 27 µM.
In the same order, the values of `COc1cc(COc2ccc(CNc3cc(C)nc4ccc(OC)cc34)cc2)cc(OC)c1` [Compound 9z, N-(4-((3,5-dimethoxybenzyl)oxy)benzyl)-6-methoxy-2-methylquinolin-4-amine] are 164 to 166 °C and 11.2 µM.
On the same counts, the results for `Cc1cc(NCc2ccc(OCc3ccc(Cl)cc3)cc2)c2cc(Cl)ccc2n1` [Compound 9h, N-(4-((4-chlorobenzyl)oxy)benzyl) 6-chloro-2-methylquinolin-4-amine] are 177 to 179 °C and 5.9 µM.
